Activity calls are given as the source filed them. No cut-off for these calls is given here. Residues, ends and D or L forms follow the SMILES beside them. *: point of attachment. Propyl(2R-PamO,3-PamO) = CCCCCCCCCCCCCCCC(=O)OC[C@H](C*)OC(=O)CCCCCCCCCCCCCCC; Palmitoyl = CCCCCCCCCCCCCCCC(=O)*
Assays:
[1] = molecular target: Toll-like receptor 1/2 (Homo sapiens) (UniProt O60603+Q15399); assay: Agonist activity at TLR2/1 in PMA-differentiated human THP-1 cells assessed as induction of IL-6 production at 2.5 uM incubated for 24 hrs after preincubation with anti-hTLR2-IGA for 2 hrs by ELISA; format: cell-based
[2] = molecular target: Toll-like receptor 2 (Mus musculus) (UniProt Q9QUN7); assay: Activation of TLR2 in wild type mouse BMDM cells assessed as stimulation of IL-12 production at 0.1 to 1 uM incubated for 24 hrs by ELISA; format: cell-based
Toll-like receptor 2 (Mus musculus), sequence (Q9QUN7 whole entry): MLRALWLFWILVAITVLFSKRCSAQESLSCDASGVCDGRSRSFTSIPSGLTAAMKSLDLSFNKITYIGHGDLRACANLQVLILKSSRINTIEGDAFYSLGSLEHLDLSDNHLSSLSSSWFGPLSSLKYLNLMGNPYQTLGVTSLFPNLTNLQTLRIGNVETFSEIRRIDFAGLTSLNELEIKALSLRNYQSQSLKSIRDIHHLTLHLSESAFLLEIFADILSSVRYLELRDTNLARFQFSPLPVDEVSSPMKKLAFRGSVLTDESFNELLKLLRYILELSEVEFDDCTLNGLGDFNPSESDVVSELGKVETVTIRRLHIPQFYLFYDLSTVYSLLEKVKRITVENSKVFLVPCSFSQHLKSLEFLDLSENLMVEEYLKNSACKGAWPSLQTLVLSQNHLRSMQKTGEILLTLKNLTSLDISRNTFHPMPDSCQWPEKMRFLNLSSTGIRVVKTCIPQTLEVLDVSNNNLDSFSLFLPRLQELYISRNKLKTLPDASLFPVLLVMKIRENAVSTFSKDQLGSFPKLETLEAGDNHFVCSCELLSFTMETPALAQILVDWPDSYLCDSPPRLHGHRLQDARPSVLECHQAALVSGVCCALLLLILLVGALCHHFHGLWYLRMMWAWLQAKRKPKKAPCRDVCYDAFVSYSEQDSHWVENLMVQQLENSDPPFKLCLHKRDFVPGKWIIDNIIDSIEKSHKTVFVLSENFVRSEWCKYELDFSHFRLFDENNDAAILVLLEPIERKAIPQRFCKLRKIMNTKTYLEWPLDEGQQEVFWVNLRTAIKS

[3] = tested on: BMDM; assay: Effect on TNFalpha production in TLR2-/- mouse BMDM cells at 0.1 to 1 uM incubated for 24 hrs by ELISA; format: functional, cell-based
[4] = molecular target: Toll-like receptor 2 (Mus musculus) (UniProt Q9QUN7); assay: Agonist activity at TLR2 in mouse BV2 cells assessed as increase in IL-6 secretion at 2 uM incubated for 24 hrs by ELISA; format: cell-based
[5] = molecular target: Toll-like receptor 2 (Mus musculus) (UniProt Q9QUN7); assay: Agonist activity at TLR2 in mouse dendritic cells assessed as upregulation MHC class 2 expression at 100 ng/ml by flow cytometry; format: cell-based
[6] = molecular target: Toll-like receptor 2 (Homo sapiens) (UniProt O60603); assay: Agonist activity at human TLR2 in PMA-differentiated THP-1 cells assessed as induction of IL-6 production at 0.5 to 2.5 uM incubated for 24 hrs by ELISA; format: cell-based
Toll-like receptor 2 (Homo sapiens), sequence (O60603 whole entry): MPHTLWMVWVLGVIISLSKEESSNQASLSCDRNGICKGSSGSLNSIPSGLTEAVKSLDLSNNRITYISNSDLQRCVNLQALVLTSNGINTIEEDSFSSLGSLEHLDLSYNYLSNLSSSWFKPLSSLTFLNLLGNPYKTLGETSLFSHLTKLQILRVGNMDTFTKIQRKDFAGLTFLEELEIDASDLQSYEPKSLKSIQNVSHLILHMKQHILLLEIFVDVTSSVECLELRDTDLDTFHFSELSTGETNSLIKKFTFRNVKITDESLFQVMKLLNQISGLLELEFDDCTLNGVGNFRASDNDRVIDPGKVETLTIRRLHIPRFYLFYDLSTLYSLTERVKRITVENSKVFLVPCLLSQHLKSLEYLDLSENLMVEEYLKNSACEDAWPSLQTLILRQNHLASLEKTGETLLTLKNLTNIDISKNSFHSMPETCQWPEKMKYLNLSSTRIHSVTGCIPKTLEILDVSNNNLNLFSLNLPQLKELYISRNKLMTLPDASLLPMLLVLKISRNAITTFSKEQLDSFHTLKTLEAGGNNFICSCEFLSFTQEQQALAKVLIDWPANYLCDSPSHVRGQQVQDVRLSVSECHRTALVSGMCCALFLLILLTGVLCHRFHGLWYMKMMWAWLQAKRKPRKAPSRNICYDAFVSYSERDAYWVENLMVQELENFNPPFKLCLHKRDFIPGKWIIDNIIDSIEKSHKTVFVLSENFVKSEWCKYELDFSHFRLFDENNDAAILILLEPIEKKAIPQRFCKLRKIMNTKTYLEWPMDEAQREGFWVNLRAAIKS

[7] = molecular target: Toll-like receptor 2 (Mus musculus) (UniProt Q9QUN7); assay: Agonist activity at TLR2 in wild type mouse BMDM cells assessed as induction of NFkappaB pathway activation by measuring increase in IL-6 mRNA expression by qRT-PCR analysis; format: cell-based
[8] = molecular target: Toll-like receptor 2 (Mus musculus) (UniProt Q9QUN7); assay: Agonist activity at TLR2 in mouse BV2 cells assessed as stimulation of NFkappaB pathway by measuring increase in IkappaBalpha phosphorylation incubated for 12 hrs by Western blot analysis; format: cell-based
[9] = molecular target: Toll-like receptor 2 (Mus musculus) (UniProt Q9QUN7); assay: Agonist activity at TLR2 in mouse BV2 cells assessed as increase in IL-6 secretion at 1 uM incubated for 24 hrs in presence of NF-kappaB inhibitor triptolide by ELISA; format: cell-based
[10] = tested on: THP-1; assay: Agonist activity at TLR2/1 in PMA-differentiated human THP-1 cells assessed as induction of IL-6 production at 2.5 uM incubated for 24 hrs after preincubation with anti-hTLR1-IGG for 2 hrs by ELISA; format: cell-based
[11] = molecular target: Toll-like receptor 2 (Mus musculus) (UniProt Q9QUN7); assay: Activation of TLR2 in wild type mouse BMDM cells assessed as stimulation of TNFalpha production at 0.1 to 1 uM incubated for 24 hrs by ELISA; format: cell-based
[12] = molecular target: Toll-like receptor 2 (Mus musculus) (UniProt Q9QUN7); assay: Agonist activity at TLR2 in mouse dendritic cells assessed as upregulation CD86 expression at 100 ng/ml by flow cytometry; format: cell-based
[13] = molecular target: T1, TLR2/TLR6 (Homo sapiens) (UniProt O60603+Q9Y2C9); assay: Agonist activity at TLR2/6 in PMA-differentiated human THP-1 cells assessed as induction of IL-6 production at 2.5 uM incubated for 24 hrs after preincubation with anti-hTLR6-IGG for 2 hrs by ELISA; format: cell-based
[14] = molecular target: Toll-like receptor 2 (Mus musculus) (UniProt Q9QUN7); assay: Agonist activity at TLR2 in mouse dendritic cells assessed as upregulation CD80 expression at 100 ng/ml by flow cytometry; format: cell-based
[15] = tested on: BMDM; assay: Effect on IL-6 production in TLR2-/- mouse BMDM cells at 0.1 to 1 uM incubated for 24 hrs by ELISA; format: functional, cell-based
[16] = molecular target: Toll-like receptor 2 (Mus musculus) (UniProt Q9QUN7); assay: Agonist activity at TLR2 in mouse RAW264.7 cells assessed as induction of IL-6 production incubated for 24 hrs by ELISA; format: cell-based
[17] = molecular target: Toll-like receptor 2 (Mus musculus) (UniProt Q9QUN7); assay: Activation of TLR2 in wild type mouse BMDM cells assessed as stimulation of IL-6 production at 0.1 to 1 uM incubated for 24 hrs by ELISA; format: cell-based
[18] = (§1) Effect on IL-6 mRNA expression in TLR2-/- mouse BMDM cells at 0.1 to 1 uM by qRT-PCR analysis; format: ADME, cell-based
[19] = tested on: BV-2; assay: Effect on IkappaBalpha protein expression in mouse BV2 cells at 0.2 to 2 uM incubated for 12 hrs by Western blot analysis; format: ADME, cell-based; conditions: bv-2, 12 h
[20] = as §1; format: ADME, cell-based; remark: listed apart in the source
[21] = tested on: BV-2; assay: Cytotoxicity against mouse BV2 cells assessed as cell viability up to 5 uM incubated for 24 hrs by CCK-8 assay; format: cell-based; conditions: bv-2, 24 h
[22] = tested on: BMDM; assay: Effect on IL-12 production in TLR2-/- mouse BMDM cells at 0.1 to 1 uM incubated for 24 hrs by ELISA; format: functional, cell-based
[23] = molecular target: Toll-like receptor 1/2 (Mus musculus) (UniProt Q9QUN7+Q9EPQ1); assay: Agonist activity at TLR2/1 in mouse BV2 cells assessed as induction of IL-6 production at 2 uM incubated for 24 hrs in presence of TLR2/1 inhibitor CU-CPT22 by ELISA; format: cell-based
[24] = molecular target: T1, TLR2/TLR6 (Homo sapiens); assay: Agonist activity at TLR2/6 in PMA-differentiated human THP-1 cells assessed as induction of IL-6 production at 2.5 uM incubated for 24 hrs after preincubation with […] for 2 hrs by ELISA; format: cell-based
[25] = Effect on TNFalpha mRNA expression in TLR2-/- mouse BMDM cells at 0.1 to 1 uM by qRT-PCR analysis; format: ADME, cell-based
[26] = tested on: Dendritic cell; assay: Effect on MHC class 2 expression in TLR2-/- mouse dendritic cells at 100 ng/ml by flow cytometry; format: ADME, cell-based
[27] = molecular target: Toll-like receptor 2 (Mus musculus, UniProt Q9QUN7); assay: Agonist activity at TLR2 in wild type mouse BMDM cells assessed as induction of NFkappaB pathway activation by measuring increase in TNF-alpha mRNA expression by qRT-PCR analysis; format: cell-based
Toll-like receptor 2, sequence (Q9QUN7 whole entry): as the sequence (Q9QUN7 whole entry) above

[28] = tested on: Dendritic cell; assay: Effect on CD86 expression in TLR2-/- mouse dendritic cells at 100 ng/ml by flow cytometry; format: ADME, cell-based
[29] = tested on: Dendritic cell; assay: Effect on CD80 expression in TLR2-/- mouse dendritic cells at 100 ng/ml by flow cytometry; format: ADME, cell-based
[30] = tested on: THP-1; assay: Cytotoxicity against human THP1 cells assessed as cell viability up to 5 uM incubated for 24 hrs by CCK-8 assay; format: cell-based; conditions: thp-1, 24 h

CCCCCCCCCCCCCCCCOC(=O)NCCSC[C@H](NC(=O)CCCCCCCCCCCCCCC)C(=O)N[C@H](CO)C(=O)N[C@@H](CCCCN)C(=O)N[C@@H](CCCCN)C(=O)N[C@@H](CCCCN)C(=O)N[C@@H](CCCCN)C(=O)O
Activity [1]: Active | Activity [2]: Active | Activity [3]: inactive | Activity [4]: Active | Activity [5]: Active | Activity [6]: Active | Activity [7]: Dose-dependent effect | Activity [8]: inactive | Activity [9]: inactive | Activity [10]: inactive | Activity [11]: Active | Activity [12]: Active | Activity [13]: inactive | Activity [14]: Dose-dependent effect | Activity [15]: Active | Activity [16]: Dose-dependent effect | Activity [17]: inactive

CCCCCCCCCCCCCCCC(=O)N[C@@H](CSCCNC(=O)OCCCCCCCCCCCCCC)C(=O)N[C@@H](CO)C(=O)N[C@@H](CCCCN)C(=O)N[C@@H](CCCCN)C(=O)N[C@@H](CCCCN)C(=O)N[C@@H](CCCCN)C(=O)O
Activity [18]: Non-Toxic | Activity [19]: Active | Activity [20]: Non-Toxic

CCCCCCCCCCCCCCCCOC(=O)NCCSC[C@H](NC(=O)NCCCCCCCCCCCCCC)C(=O)N[C@@H](CO)C(=O)N[C@@H](CCCCN)C(=O)N[C@@H](CCCCN)C(=O)N[C@@H](CCCCN)C(=O)N[C@@H](CCCCN)C(=O)O
Activity [21]: Non-Toxic

CCCCCCCCCCCCCCCC(=O)N[C@@H](CSC[C@@H](COC(=O)CCCCCCCCCCCCCCC)OC(=O)CCCCCCCCCCCCCCC)C(=O)N[C@@H](CO)C(=O)N[C@@H](CCCCN)C(=O)N[C@@H](CCCCN)C(=O)N[C@@H](CCCCN)C(=O)N[C@@H](CCCCN)C(=O)O (Palmitoyl-C(Propyl(2R-PamO,3-PamO))SKKKK-OH)
Activity [22]: Active | Activity [7]: Dose-dependent effect | Activity [10]: inactive | Activity [18]: Non-Toxic | Activity [13]: inactive | Activity [14]: Dose-dependent effect | Activity [20]: Non-Toxic

CCCCCCCCCCCCCCCC(=O)N[C@@H](CSCCOC(=O)CCCCCCCCCCCCCCC)C(=O)N[C@@H](CO)C(=O)N[C@@H](CCCCN)C(=O)N[C@@H](CCCCN)C(=O)N[C@@H](CCCCN)C(=O)N[C@@H](CCCCN)C(=O)O
Activity [21]: Non-Toxic | Activity [18]: Non-Toxic | Activity [19]: Active | Activity [20]: Non-Toxic

CCCCCCCCCCCCCCCC(=O)N[C@@H](CSCCNC(=O)OCCCCCCCCCCCCCC)C(=O)N[C@H](CO)C(=O)N[C@@H](CCCCN)C(=O)N[C@@H](CCCCN)C(=O)N[C@@H](CCCCN)C(=O)N[C@@H](CCCCN)C(=O)O
Activity [1]: inactive | Activity [2]: Active | Activity [3]: inactive | Activity [7]: Dose-dependent effect | Activity [9]: inactive | Activity [11]: Active | Activity [14]: Dose-dependent effect | Activity [15]: Active | Activity [17]: inactive

CCCCCCCCCCCCCCCCOC(=O)NCCSC[C@H](NC(=O)CCCCCCCCCCCCCCC)C(=O)N[C@H](CO)C(=O)N[C@@H](CCCCN)C(=O)N[C@@H](CCCCN)C(=O)N[C@@H](CCCCN)C(=O)O
Activity [1]: Active | Activity [4]: Active | Activity [15]: Active

CCCCCCCCCCCCCCCCOC(=O)NCCSC[C@H](NC(=O)CCCCCCCCCCCCCCC)C(=O)N[C@@H](CO)C(=O)N[C@@H](CCCCN)C(=O)N[C@@H](CCCCN)C(=O)N[C@@H](CCCCN)C(=O)O
Activity [21]: Non-Toxic

CCCCCCCCCCCCCCCCOC(=O)NCCSC[C@H](NC(=O)NCCCCCCCCCCCCCC)C(=O)N[C@H](CO)C(=O)N[C@@H](CCCCN)C(=O)N[C@@H](CCCCN)C(=O)N[C@@H](CCCCN)C(=O)N[C@@H](CCCCN)C(=O)O
Activity [4]: Active | Activity [23]: inactive | Activity [15]: inactive | Activity [24]: inactive

CCCCCCCCCCCCCCCCOC(=O)NCCSC[C@H](NC(=O)CCCCCCCCCCCCCCC)C(=O)N[C@@H](CO)C(=O)N[C@@H](CCCCN)C(=O)N[C@@H](CCCCN)C(=O)N[C@@H](CCCCN)C(=O)N[C@@H](CCCCN)C(=O)O
Activity [25]: Non-Toxic | Activity [26]: Non-Toxic | EC50 [27]: 83.1 nM | Activity [28]: Non-Toxic | Activity [21]: Non-Toxic | Activity [29]: Active | Activity [18]: Non-Toxic | Activity [19]: Active | Activity [20]: Non-Toxic | Activity [30]: Non-Toxic

CCCCCCCCCCCCCCCC(=O)N[C@@H](CSCCOC(=O)CCCCCCCCCCCCCCC)C(=O)N[C@H](CO)C(=O)N[C@@H](CCCCN)C(=O)N[C@@H](CCCCN)C(=O)N[C@@H](CCCCN)C(=O)N[C@@H](CCCCN)C(=O)O
Activity [1]: Active | Activity [2]: Active | Activity [3]: inactive | Activity [4]: Active | Activity [7]: Dose-dependent effect | Activity [9]: inactive | Activity [10]: inactive | Activity [11]: Active | Activity [13]: inactive | Activity [14]: Dose-dependent effect | Activity [15]: Dose-dependent effect | Activity [17]: inactive

CCCCCCCCCCCCCCCCNC(=O)NCCSC[C@H](NC(=O)CCCCCCCCCCCCCCC)C(=O)N[C@H](CO)C(=O)N[C@@H](CCCCN)C(=O)N[C@@H](CCCCN)C(=O)N[C@@H](CCCCN)C(=O)N[C@@H](CCCCN)C(=O)O
Activity [1]: inactive | Activity [15]: inactive

CCCCCCCCCCCCCCCC(=O)NCCSC[C@H](NC(=O)CCCCCCCCCCCCCCC)C(=O)N[C@H](CO)C(=O)N[C@@H](CCCCN)C(=O)N[C@@H](CCCCN)C(=O)N[C@@H](CCCCN)C(=O)N[C@@H](CCCCN)C(=O)O
Activity [1]: inactive | Activity [15]: inactive

Reference: ChEMBL document CHEMBL4433228, “Identification and immunological evaluation of novel TLR2 agonists through structure optimization of Pam3CSK4” (Bioorg Med Chem, 2019)
